# In BigSolDB 2.1:
smiles,measurement,setting,value
O=C1CCc2ccc(OCCCCN3CCN(c4cccc(Cl)c4Cl)CC3)cc2N1,solubility (mole fraction),"in acetone, 278.15 K",1.97e-05
same,solubility (mole fraction),"in acetone, 283.15 K",2.73e-05
same,solubility (mole fraction),"in acetone, 288.15 K",3.6e-05
same,solubility (mole fraction),"in acetone, 293.15 K",4.71e-05
same,solubility (mole fraction),"in acetone, 298.15 K",5.94e-05
same,solubility (mole fraction),"in acetone, 303.15 K",7.32e-05
same,solubility (mole fraction),"in acetone, 308.15 K",8.93e-05
same,solubility (mole fraction),"in acetone, 313.15 K",0.00011
same,solubility (mole fraction),"in acetone, 318.15 K",0.000135
same,solubility (mole fraction),"in isopropanol, 278.15 K",6.32e-06
same,solubility (mole fraction),"in isopropanol, 283.15 K",9.1e-06
same,solubility (mole fraction),"in isopropanol, 288.15 K",1.22e-05
same,solubility (mole fraction),"in isopropanol, 293.15 K",1.68e-05
same,solubility (mole fraction),"in isopropanol, 298.15 K",2.25e-05
same,solubility (mole fraction),"in isopropanol, 303.15 K",2.94e-05
same,solubility (mole fraction),"in isopropanol, 308.15 K",3.89e-05
same,solubility (mole fraction),"in isopropanol, 313.15 K",5.05e-05
same,solubility (mole fraction),"in isopropanol, 318.15 K",6.38e-05
same,solubility (mole fraction),"in n-propanol, 278.15 K",1.46e-05
same,solubility (mole fraction),"in n-propanol, 283.15 K",1.93e-05
same,solubility (mole fraction),"in n-propanol, 288.15 K",2.57e-05
same,solubility (mole fraction),"in n-propanol, 293.15 K",3.28e-05
same,solubility (mole fraction),"in n-propanol, 298.15 K",4.12e-05
same,solubility (mole fraction),"in n-propanol, 303.15 K",5.37e-05
same,solubility (mole fraction),"in n-propanol, 308.15 K",6.72e-05
same,solubility (mole fraction),"in n-propanol, 313.15 K",8.32e-05
same,solubility (mole fraction),"in n-propanol, 318.15 K",0.000103
